Legend:
Conditions in all cases: incubation time: 72 h
HDQ-P1 [1] = test: normalised response (% of control), CellTiter-Glo; higher = more viable cells (100 = DMSO, 0 = benzethonium chloride kill control)
Protocol: (§1)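 DSRT, 72 h incubation, CellTox Green / CellTiter-Glo readout. Signal is normalised to DMSO and benzethonium chloride controls. Value is the normalised response at dose 3.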

CAL-51 [2] = test: as above
Protocol: as §1

HCC1937 [3] = test: as above
Protocol: as §1

DU-4475 [4] = test: as above
Protocol: as §1

CAL-148 [5] = test: as above
Protocol: as §1

MDA-MB-231 [6] = test: as above
Protocol: as §1

SK-BR-3 = test: as above
Protocol: as §1

Hs578T = test: as above
Protocol: as §1

MDA-MB-468 [7] = test: as above
Protocol: as §1

MDA-MB-436 [8] = test: as above
Protocol: as §1

MFM-223 [9] = test: as above
Protocol: as §1

BT-549 [10] = test: as above
Protocol: as §1

MDA-MB-453 [11] = test: as above
Protocol: as §1

CAL-85-1 [12] = test: as above
Protocol: as §1

MCF-10A [13] = test: as above
Protocol: as §1

BT-474 [14] = test: as above
Protocol: as §1

HCC1599 [15] = test: as above
Protocol: as §1

CAL-120 [16] = test: as above
Protocol: as §1

HCC1143 [17] = test: as above
Protocol: as §1

HDQ-P1 [18] = test: normalised response (% of control), CellTox Green; higher = less cell death (100 = DMSO, 0 = benzethonium chloride kill control)
Outline: (§2)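 A 20 µl suspension of breast cancer cells was seeded into each well of 384-well plates containing compound at 5 concentrations in 10-fold steps over a compound-specific 10,000-fold range. After 72 h incubation, CellTox Green fluorescence (485/520 nm) was read first, and CellTiter-Glo luminescence was read after 10 min at room temperature. Each plate was normalised against 0.1 % DMSO (100) and a positive kill control (0), and each value is the normalised signal at one concentration.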

CAL-51 [19] = test: as above
Outline: as §2

HCC1937 [20] = test: as above
Outline: as §2

DU-4475 [21] = test: as above
Outline: as §2

CAL-148 [22] = test: as above
Outline: as §2

MDA-MB-231 [23] = test: as above
Outline: as §2

MDA-MB-468 [24] = test: as above
Outline: as §2

MDA-MB-436 [25] = test: as above
Outline: as §2

BT-549 [26] = test: as above
Outline: as §2

MDA-MB-453 [27] = test: as above
Outline: as §2

CAL-85-1 [28] = test: as above
Outline: as §2

MCF-10A [29] = test: as above
Outline: as §2

BT-474 [30] = test: as above
Outline: as §2

HCC1599 [31] = test: as above
Outline: as §2

CAL-120 [32] = test: as above
Outline: as §2

HCC1143 [33] = test: as above
Outline: as §2

MFM-223 [34] = test: as above
Outline: as §2

Row | Structure (SMILES) | normalised response (HDQ-P1 [1]) [%] | normalised response (CAL-51 [2]) [%] | normalised response (HCC1937 [3]) [%] | normalised response (DU-4475 [4]) [%] | normalised response (CAL-148 [5]) [%] | normalised response (MDA-MB-231 [6]) [%] | normalised response (SK-BR-3) [%] | normalised response (Hs578T) [%] | normalised response (MDA-MB-468 [7]) [%] | normalised response (MDA-MB-436 [8]) [%] | normalised response (MFM-223 [9]) [%] | normalised response (BT-549 [10]) [%] | normalised response (MDA-MB-453 [11]) [%] | normalised response (CAL-85-1 [12]) [%] | normalised response (MCF-10A [13]) [%] | normalised response (BT-474 [14]) [%] | normalised response (HCC1599 [15]) [%] | normalised response (CAL-120 [16]) [%] | normalised response (HCC1143 [17]) [%] | normalised response (HDQ-P1 [18]) [%] | normalised response (CAL-51 [19]) [%] | normalised response (HCC1937 [20]) [%] | normalised response (DU-4475 [21]) [%] | normalised response (CAL-148 [22]) [%] | normalised response (MDA-MB-231 [23]) [%] | normalised response (MDA-MB-468 [24]) [%] | normalised response (MDA-MB-436 [25]) [%] | normalised response (BT-549 [26]) [%] | normalised response (MDA-MB-453 [27]) [%] | normalised response (CAL-85-1 [28]) [%] | normalised response (MCF-10A [29]) [%] | normalised response (BT-474 [30]) [%] | normalised response (HCC1599 [31]) [%] | normalised response (CAL-120 [32]) [%] | normalised response (HCC1143 [33]) [%] | normalised response (MFM-223 [34]) [%]
1 | COc1ccc(S(=O)(=O)Nc2cccnc2Nc2ccc(O)cc2)cc1 [ABT-751] (100 nM) | 96 | 88.9 | 92.5 | 99.6 | 96.6 | 101 | 93 | 107 | 97 | 98.5 | 101 | 100 | 84.2 | 96.9 | 96.6 | 99.2 | 109 | 95.2 | 99.3 | 101 | 98.6 | 110 | 97.4 | 104 | 102 | 81.9 | 83.8 | 95.4 | 98 | 92.2 | 57 | 92.9 | 101 | 94.7 | 69.5 | 
2 | COc1cc(Nc2c(C#N)cnc3cc(OCCCN4CCN(C)CC4)c(OC)cc23)c(Cl)cc1Cl [Bosutinib] (100 nM) | 85.9 | 100 | 95.5 | 97.5 | 104 | 100 | 109 | 99 | 95.4 | 103 | 99.3 | 103 | 103 | 98.3 | 77.4 | 104 | 93.1 | 100 | 101 | 101 | 101 | 54.8 | 109 | 105 | 104 | 148 | 104 | 97.1 | 100 | 117 | 103 | 101 | 101 | 99.3 | 76.2 | 101
3 | CC(C)(C)c1nc(-c2cccc(NS(=O)(=O)c3c(F)cccc3F)c2F)c(-c2ccnc(N)n2)s1 [Dabrafenib] (25 nM) | 103 | 89.9 | 102 | 82.6 | 108 | 100 | 110 | 104 | 94.7 | 111 | 106 | 104 | 96.7 | 96.6 | 115 | 99.2 | 105 | 99.8 | 118 | 95.9 | 110 | 94.8 | 99.8 | 106 | 114 | 119 | 79.1 | 98.8 | 105 | 107 | 108 | 103 | 93.3 | 105 | 107 | 
4 | CC1(C)CCC(c2ccc(Cl)cc2)=C(CN2CCN(c3ccc(C(=O)NS(=O)(=O)c4ccc(N[C@H](CCN5CCOCC5)CSc5ccccc5)c(S(=O)(=O)C(F)(F)F)c4)cc3)CC2)C1 [Navitoclax] (100 nM) | 96.8 | 104 | 87.9 | 92.9 | 88 | 91.4 | 88.5 | 93.6 | 83 | 91.9 | 96 | 96.7 | 87.7 | 89.7 | 91.4 | 88.1 | 94.5 | 87.2 | 95.6 |  | 94 | 67.1 | 96.2 | 100 | 73.8 | 104 | 72.7 | 96.6 | 92 | 93.6 | 79.6 | 99.4 | 101 | 92.1 | 92.1 | 103
5 | CCn1c(C(=O)N(C2CC2)C2CC2)cc2c3c(ncn3C)c(Nc3cc(C)n(C)n3)nc21 (100 nM) | 98.3 | 87.7 | 97.4 | 99.2 | 103 | 99.7 | 105 | 110 | 97 | 106 | 99.8 | 110 | 93.2 | 100 | 106 | 100 | 93 | 95.7 | 101 | 102 | 101 | 57.1 | 101 | 103 | 106 | 83.1 | 93.9 | 106 | 99.3 | 108 | 77.7 | 101 | 96 | 90.4 | 98.8 | 94.8
6 | CO[C@@]12[C@H](COC(N)=O)C3=C(C(=O)C(C)=C(N)C3=O)N1C[C@@H]1N[C@@H]12 [Mitomycin C] (100 nM) | 104 | 101 | 93.9 | 99 | 89.6 | 93.5 | 94 | 98.9 | 91.3 | 90.8 | 93.8 | 96.5 | 94.1 | 101 | 92.2 | 95.2 | 95.7 | 91.8 | 98.2 |  | 73.6 | 84.9 | 95.3 | 60.3 | 97 |  | 83.8 | 99.5 | 102 | 93.3 | 81.8 | 100 | 91.5 | 101 | 90 | 99.2
